Consider two molecules from ChEMBL document CHEMBL5678810.

Experiment [1] deals with Serine/threonine-protein kinase Chk2 (Homo sapiens) (UniProt O96017). Briefly: Inhibition of CHK2 Lys2 labeling site in human PC-3 cell lysate at 10 uM by KiNativ profiling analysis relative to control. Type of experiment: subcellular.
The subject of experiment [2] is Serine/threonine-protein kinase B-raf (Homo sapiens), P15056 [V600E]. The experiment in a line: Inhibition of T7 bacteriophage fused human BRAF V600E mutant at 10 uM by KINOMEscan analysis relative to control.
Experiment [3] has as its target Atypical kinase COQ8B, mitochondrial (Homo sapiens) (UniProt Q96D53). Briefly: Inhibition of T7 bacteriophage fused human ADCK4 at 10 uM by KINOMEscan analysis relative to control.
The target of experiment [4] is Tyrosine-protein kinase Fes/Fps (Homo sapiens) (UniProt P07332). The experiment in a line: Inhibition of T7 bacteriophage fused human FES at 10 uM by KINOMEscan analysis relative to control; values are per cent of control.
Experiment [5] has as its target Myosin-IIIa (Homo sapiens) (UniProt Q8NEV4). The experiment in a line: Inhibition of T7 bacteriophage fused human MYO3A at 10 uM by KINOMEscan analysis relative to control; values are per cent of control.
Experiment [6] has as its target Mitogen-activated protein kinase 4 (Homo sapiens) (UniProt P31152). Briefly: Inhibition of T7 bacteriophage fused human ERK4 at 10 uM by KINOMEscan analysis relative to control.
Experiment [7] addresses Cyclin-dependent kinase 4/cyclin D1 (Homo sapiens) (UniProt P11802+P24385). The experiment in a line: Inhibition of T7 bacteriophage fused human CDK4-cyclinD1 at 10 uM by KINOMEscan analysis relative to control. It is filed as protein-complex assay.
Experiment [8] addresses Ephrin type-A receptor 3 (Homo sapiens) (UniProt P29320). The experiment in a line: Inhibition of T7 bacteriophage fused human EPHA3 at 10 uM by KINOMEscan analysis relative to control.
Experiment [9] addresses Cyclin-dependent kinase-like 1 (Homo sapiens) (UniProt Q00532). The experiment in a line: Inhibition of T7 bacteriophage fused human CDKL1 at 10 uM by KINOMEscan analysis relative to control.
The target in experiment [10] is Tyrosine-protein kinase Fyn (Homo sapiens) (UniProt P06241). Briefly: Inhibition of T7 bacteriophage fused human FYN at 10 uM by KINOMEscan analysis relative to control.
Experiment [11] concerns the target Hepatocyte growth factor receptor (Homo sapiens) (UniProt P08581). Briefly: Inhibition of T7 bacteriophage fused human MET at 10 uM by KINOMEscan analysis relative to control.
Experiment [12] deals with Tyrosine-protein kinase CSK (Homo sapiens) (UniProt P41240). Briefly: Inhibition of T7 bacteriophage fused human CSK at 10 uM by KINOMEscan analysis relative to control; values are per cent of control.
Experiment [13] deals with Cyclin-dependent kinase 17 (Homo sapiens) (UniProt Q00537). Briefly: Inhibition of T7 bacteriophage fused human PCTK2 at 10 uM by KINOMEscan analysis relative to control.
In experiment [14] the target is Dual specificity mitogen-activated protein kinase kinase 1 (Homo sapiens) (UniProt Q02750). The experiment in a line: Inhibition of T7 bacteriophage fused human MEK1 at 10 uM by KINOMEscan analysis relative to control.
Dual specificity mitogen-activated protein kinase kinase 1 (Homo sapiens), sequence (Q02750 whole entry, the tested form may be a part): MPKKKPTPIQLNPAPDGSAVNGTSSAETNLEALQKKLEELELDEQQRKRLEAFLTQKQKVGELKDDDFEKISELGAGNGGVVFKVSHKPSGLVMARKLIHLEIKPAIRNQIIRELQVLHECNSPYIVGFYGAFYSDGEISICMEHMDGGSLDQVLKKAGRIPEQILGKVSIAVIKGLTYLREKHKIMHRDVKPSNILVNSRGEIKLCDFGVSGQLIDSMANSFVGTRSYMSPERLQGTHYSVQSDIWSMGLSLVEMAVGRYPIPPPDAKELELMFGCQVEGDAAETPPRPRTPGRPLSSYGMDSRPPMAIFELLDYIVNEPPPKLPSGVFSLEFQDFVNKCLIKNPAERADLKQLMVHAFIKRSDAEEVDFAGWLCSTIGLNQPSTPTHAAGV
For experiment [15], the target named is Serine/threonine-protein kinase Nek6 (Homo sapiens) (UniProt Q9HC98). The experiment in a line: Inhibition of T7 bacteriophage fused human NEK6 at 10 uM by KINOMEscan analysis relative to control.
Experiment [16] has as its target Fibroblast growth factor receptor 2 (Homo sapiens) (UniProt P21802). The experiment in a line: Inhibition of T7 bacteriophage fused human FGFR2 at 10 uM by KINOMEscan analysis relative to control; values are per cent of control.
Experiment [17] deals with Tyrosine-protein kinase Fer (Homo sapiens) (UniProt P16591). Briefly: Inhibition of T7 bacteriophage fused human FER at 10 uM by KINOMEscan analysis relative to control; values are per cent of control.
Tyrosine-protein kinase Fer (Homo sapiens), sequence (P16591 whole entry, looked up, the tested form may be a part): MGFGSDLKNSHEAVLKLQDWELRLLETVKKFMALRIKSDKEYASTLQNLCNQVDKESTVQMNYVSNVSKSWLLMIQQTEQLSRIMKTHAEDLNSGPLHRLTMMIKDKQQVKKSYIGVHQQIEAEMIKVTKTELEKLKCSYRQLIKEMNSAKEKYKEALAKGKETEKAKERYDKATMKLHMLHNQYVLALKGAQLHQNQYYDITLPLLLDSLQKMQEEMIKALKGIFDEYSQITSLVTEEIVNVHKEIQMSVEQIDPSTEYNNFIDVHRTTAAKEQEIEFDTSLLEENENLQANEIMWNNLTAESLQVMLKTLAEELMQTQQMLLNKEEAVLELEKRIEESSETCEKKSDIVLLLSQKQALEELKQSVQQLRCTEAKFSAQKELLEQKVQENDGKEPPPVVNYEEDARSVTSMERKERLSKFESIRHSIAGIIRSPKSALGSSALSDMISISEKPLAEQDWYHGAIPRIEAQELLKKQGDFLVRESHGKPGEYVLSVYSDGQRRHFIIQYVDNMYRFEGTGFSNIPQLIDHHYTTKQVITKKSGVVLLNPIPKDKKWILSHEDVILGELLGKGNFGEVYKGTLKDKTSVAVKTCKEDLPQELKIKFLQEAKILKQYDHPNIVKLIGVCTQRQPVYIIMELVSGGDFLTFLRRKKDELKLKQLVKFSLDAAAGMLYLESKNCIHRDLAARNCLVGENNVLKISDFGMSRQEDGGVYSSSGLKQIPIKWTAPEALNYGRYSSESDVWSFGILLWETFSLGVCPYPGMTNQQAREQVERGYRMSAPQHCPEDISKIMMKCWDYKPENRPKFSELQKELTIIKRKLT
The target in experiment [18] is Serine/threonine-protein kinase DCLK2 (Homo sapiens) (UniProt Q8N568). Briefly: Inhibition of T7 bacteriophage fused human DCAMKL2 at 10 uM by KINOMEscan analysis relative to control.
Experiment [19] relates to Mast/stem cell growth factor receptor Kit (Homo sapiens), P10721 [D816V]. Briefly: Inhibition of T7 bacteriophage fused human KIT D816V mutant at 10 uM by KINOMEscan analysis relative to control.
The target in experiment [20] is Myotonin-protein kinase (Homo sapiens) (UniProt Q09013). The experiment in a line: Inhibition of T7 bacteriophage fused human DMPK at 10 uM by KINOMEscan analysis relative to control.
For experiment [21], the target named is Ribosomal protein S6 kinase alpha-4 (Homo sapiens) (UniProt O75676). The experiment in a line: Inhibition of T7 bacteriophage fused human C-terminal RPS6KA4 Kinase domain-2 at 10 uM by KINOMEscan analysis relative to control.
Experiment [22] has as its system Tyrosine-protein kinase ABL1 (Homo sapiens), P00519 [H396P]. Briefly: Inhibition of T7 bacteriophage fused human phosphorylated ABL1 H396P mutant at 10 uM by KINOMEscan analysis relative to control.
Experiment [23] addresses BMP-2-inducible protein kinase (Homo sapiens) (UniProt Q9NSY1). Briefly: Inhibition of T7 bacteriophage fused human BIKE at 10 uM by KINOMEscan analysis relative to control.
The target of experiment [24] is Bone morphogenetic protein receptor type-1A (Homo sapiens) (UniProt P36894). The experiment in a line: Inhibition of T7 bacteriophage fused human BMPR1A at 10 uM by KINOMEscan analysis relative to control.
Experiment [25] concerns the target Phosphatidylinositol 5-phosphate 4-kinase type-2 gamma (Homo sapiens) (UniProt Q8TBX8). The experiment in a line: Inhibition of T7 bacteriophage fused human PIP5K2C at 10 uM by KINOMEscan analysis relative to control.
Experiment [26] addresses Phosphatidylinositol 5-phosphate 4-kinase type-2 beta (Homo sapiens) (UniProt P78356). The experiment in a line: Inhibition of T7 bacteriophage fused human PIP5K2B at 10 uM by KINOMEscan analysis relative to control.
The target of experiment [27] is Aurora kinase A (Homo sapiens) (UniProt O14965). Briefly: Inhibition of T7 bacteriophage fused human AURKA at 10 uM by KINOMEscan analysis relative to control.
Aurora kinase A (Homo sapiens), sequence (O14965 whole entry, the tested form may be a part): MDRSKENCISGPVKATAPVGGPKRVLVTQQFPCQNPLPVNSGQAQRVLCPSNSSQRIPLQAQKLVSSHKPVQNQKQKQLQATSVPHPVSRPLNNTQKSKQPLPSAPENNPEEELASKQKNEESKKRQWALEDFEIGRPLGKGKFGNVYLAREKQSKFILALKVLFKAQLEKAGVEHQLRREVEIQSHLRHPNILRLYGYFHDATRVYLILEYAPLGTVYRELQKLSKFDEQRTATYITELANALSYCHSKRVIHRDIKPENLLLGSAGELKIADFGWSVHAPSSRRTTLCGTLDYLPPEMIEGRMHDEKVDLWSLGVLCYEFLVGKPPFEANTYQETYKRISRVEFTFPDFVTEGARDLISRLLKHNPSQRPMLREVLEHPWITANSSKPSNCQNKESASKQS
Experiment [28] concerns the target Tyrosine-protein kinase Lck (Homo sapiens) (UniProt P06239). The experiment in a line: Inhibition of T7 bacteriophage fused human LCK at 10 uM by KINOMEscan analysis relative to control.
In experiment [29] the target is Serine/threonine-protein kinase ULK2 (Homo sapiens) (UniProt Q8IYT8). Briefly: Inhibition of T7 bacteriophage fused human ULK2 at 10 uM by KINOMEscan analysis relative to control.
The target of experiment [30] is Ribosomal protein S6 kinase alpha-6 (Homo sapiens) (UniProt Q9UK32). The experiment in a line: Inhibition of T7 bacteriophage fused human C-terminal RSK4 Kinase domain-2 at 10 uM by KINOMEscan analysis relative to control.
Ribosomal protein S6 kinase alpha-6 (Homo sapiens), sequence (Q9UK32 whole entry, the tested form may be a part): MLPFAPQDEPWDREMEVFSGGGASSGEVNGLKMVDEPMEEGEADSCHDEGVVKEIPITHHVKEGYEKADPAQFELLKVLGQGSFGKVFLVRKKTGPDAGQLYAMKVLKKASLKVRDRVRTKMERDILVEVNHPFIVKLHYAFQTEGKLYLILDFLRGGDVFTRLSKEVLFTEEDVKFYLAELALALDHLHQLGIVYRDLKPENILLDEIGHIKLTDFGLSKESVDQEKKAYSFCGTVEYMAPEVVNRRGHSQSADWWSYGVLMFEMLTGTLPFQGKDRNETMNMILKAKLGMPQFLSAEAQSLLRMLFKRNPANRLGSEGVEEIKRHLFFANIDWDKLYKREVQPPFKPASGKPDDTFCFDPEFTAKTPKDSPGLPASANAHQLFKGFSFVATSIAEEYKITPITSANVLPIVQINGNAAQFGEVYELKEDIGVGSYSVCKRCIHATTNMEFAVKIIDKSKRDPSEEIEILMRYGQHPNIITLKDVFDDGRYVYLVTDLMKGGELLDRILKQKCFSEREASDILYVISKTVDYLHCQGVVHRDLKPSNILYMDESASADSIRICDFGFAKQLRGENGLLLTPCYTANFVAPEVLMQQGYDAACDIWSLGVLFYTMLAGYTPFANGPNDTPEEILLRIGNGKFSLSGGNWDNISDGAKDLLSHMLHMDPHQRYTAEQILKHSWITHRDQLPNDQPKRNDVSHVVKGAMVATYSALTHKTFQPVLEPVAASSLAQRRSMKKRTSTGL
Experiment [31] deals with Serine/threonine-protein kinase DCLK3 (Homo sapiens) (UniProt Q9C098). Briefly: Inhibition of T7 bacteriophage fused human DCAMKL3 at 10 uM by KINOMEscan analysis relative to control; values are per cent of control.

Each structure is given as a SMILES string.

Phosphatidylinositol 5-phosphate 4-kinase type-2 beta (Homo sapiens), sequence (P78356 whole entry, the tested form may be a part): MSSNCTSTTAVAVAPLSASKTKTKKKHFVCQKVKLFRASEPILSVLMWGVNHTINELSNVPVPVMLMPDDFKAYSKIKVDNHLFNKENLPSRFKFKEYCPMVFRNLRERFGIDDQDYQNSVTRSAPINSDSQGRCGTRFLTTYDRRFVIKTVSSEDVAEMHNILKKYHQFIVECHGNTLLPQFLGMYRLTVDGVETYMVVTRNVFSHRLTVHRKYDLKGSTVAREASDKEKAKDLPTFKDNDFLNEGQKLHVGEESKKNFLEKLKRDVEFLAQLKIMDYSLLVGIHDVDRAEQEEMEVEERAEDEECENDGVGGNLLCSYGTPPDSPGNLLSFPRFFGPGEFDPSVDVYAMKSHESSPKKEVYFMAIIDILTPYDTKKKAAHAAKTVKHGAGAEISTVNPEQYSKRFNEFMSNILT
Ephrin type-A receptor 3 (Homo sapiens), sequence (P29320 whole entry, the tested form may be a part): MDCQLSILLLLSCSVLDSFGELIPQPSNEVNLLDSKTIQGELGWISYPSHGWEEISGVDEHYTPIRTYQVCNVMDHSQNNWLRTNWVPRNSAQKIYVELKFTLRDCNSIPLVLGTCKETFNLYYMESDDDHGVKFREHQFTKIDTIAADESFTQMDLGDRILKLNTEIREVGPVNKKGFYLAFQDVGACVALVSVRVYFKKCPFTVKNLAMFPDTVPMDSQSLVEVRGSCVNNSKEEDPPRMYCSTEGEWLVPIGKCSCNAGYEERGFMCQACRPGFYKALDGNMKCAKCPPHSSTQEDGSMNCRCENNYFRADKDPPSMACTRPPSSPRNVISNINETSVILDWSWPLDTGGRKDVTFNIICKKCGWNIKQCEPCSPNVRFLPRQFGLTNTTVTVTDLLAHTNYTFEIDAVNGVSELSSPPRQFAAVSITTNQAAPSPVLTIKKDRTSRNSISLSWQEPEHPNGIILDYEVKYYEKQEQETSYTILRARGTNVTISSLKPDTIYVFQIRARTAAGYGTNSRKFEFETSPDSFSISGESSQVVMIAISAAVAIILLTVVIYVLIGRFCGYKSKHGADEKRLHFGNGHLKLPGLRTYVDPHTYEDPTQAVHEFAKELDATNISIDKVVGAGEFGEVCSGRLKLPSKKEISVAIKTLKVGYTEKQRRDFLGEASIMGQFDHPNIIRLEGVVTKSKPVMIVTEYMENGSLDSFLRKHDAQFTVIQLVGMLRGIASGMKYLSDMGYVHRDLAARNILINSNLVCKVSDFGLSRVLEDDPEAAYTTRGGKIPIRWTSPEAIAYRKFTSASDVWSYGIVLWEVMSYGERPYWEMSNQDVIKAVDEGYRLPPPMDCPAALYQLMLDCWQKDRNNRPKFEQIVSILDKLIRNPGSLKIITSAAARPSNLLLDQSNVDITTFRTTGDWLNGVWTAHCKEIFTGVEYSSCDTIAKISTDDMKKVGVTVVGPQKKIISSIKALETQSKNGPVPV
Phosphatidylinositol 5-phosphate 4-kinase type-2 gamma (Homo sapiens), sequence (Q8TBX8 whole entry, the tested form may be a part): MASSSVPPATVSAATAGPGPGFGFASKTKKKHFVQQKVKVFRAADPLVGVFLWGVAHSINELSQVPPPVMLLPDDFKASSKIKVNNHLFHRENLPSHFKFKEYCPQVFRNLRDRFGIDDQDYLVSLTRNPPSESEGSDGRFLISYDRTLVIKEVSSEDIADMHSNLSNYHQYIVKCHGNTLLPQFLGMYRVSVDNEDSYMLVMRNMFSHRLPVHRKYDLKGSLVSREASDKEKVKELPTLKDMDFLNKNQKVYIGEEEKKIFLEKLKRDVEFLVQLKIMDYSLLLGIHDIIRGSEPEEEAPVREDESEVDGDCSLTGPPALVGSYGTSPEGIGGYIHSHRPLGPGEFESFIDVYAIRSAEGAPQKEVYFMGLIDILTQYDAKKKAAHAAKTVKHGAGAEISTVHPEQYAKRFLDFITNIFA
Fibroblast growth factor receptor 2 (Homo sapiens), sequence (P21802 22-821 limits assumed): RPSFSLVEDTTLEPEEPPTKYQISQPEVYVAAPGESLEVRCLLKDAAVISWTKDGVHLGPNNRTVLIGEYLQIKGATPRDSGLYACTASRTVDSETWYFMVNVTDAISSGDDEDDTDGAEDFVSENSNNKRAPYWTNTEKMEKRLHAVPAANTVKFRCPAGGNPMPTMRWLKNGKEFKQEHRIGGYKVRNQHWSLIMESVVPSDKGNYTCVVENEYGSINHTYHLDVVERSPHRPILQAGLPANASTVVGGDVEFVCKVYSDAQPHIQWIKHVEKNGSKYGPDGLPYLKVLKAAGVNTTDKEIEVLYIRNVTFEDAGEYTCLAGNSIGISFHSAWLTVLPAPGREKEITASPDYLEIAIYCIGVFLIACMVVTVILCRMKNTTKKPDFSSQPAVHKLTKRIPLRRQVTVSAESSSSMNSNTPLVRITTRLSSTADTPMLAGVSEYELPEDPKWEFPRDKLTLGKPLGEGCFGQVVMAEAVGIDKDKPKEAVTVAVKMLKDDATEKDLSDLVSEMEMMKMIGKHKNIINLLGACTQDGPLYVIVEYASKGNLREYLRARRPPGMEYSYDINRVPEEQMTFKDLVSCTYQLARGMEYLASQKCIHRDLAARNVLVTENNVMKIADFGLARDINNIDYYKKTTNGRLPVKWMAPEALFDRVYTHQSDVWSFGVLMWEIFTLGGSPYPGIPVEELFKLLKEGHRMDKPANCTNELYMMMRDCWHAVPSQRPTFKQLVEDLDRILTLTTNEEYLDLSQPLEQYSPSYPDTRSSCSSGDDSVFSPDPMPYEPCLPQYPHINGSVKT

`COc1cc(C(=O)N2CCC(N3CCN(C)CC3)CC2)ccc1Nc1ncc2c(n1)N(C1CCCC1)c1ccccc1C(=O)N2C` came in with an inhibition in experiment [1] of 0%.

Regarding `COc1cc(N2CCC(N3CCN(C)CC3)CC2)ccc1Nc1ncc2c(n1)N(C)c1ccccc1C(=O)N2C`, the inhibition in [2] is 100%; in [3] it was 94%; in experiment [6], 100%; in [7] it was 100%; in experiment [8] it was 100%; in experiment [9] it was 78%. In addition, the inhibition in [10] is 100%; in [11], 100%; in experiment [13], 83%; in [14], 100%; in [15], 76%; in experiment [18], 0.45%. For the same molecule, the inhibition in [19] was 72%; in experiment [20], 100%; in [21], 46%; in experiment [22], 100%; in experiment [23], 100%; in experiment [24], 100%. Also, the inhibition in experiment [25] was found to be 40%; in [26] it was 100%; in experiment [27], 1.2%; in experiment [28], 100%; in experiment [29] it was 67%; in experiment [30], 2.2%. For the same molecule, the residual activity worked out at 84% in experiment [4]; 94% in experiment [5]; 90% in experiment [12]; 95% in experiment [16]; 51% in experiment [17]; 90% in experiment [31].
